In experiment [1] the test system is HT-29 cells. Nature of the experiment: cells. The following applies: Homo sapiens, HT-29, 48 h, read-out: HT-29 IV (intermediate value). As to the method:
(§1) Cell viability was evaluated by MTT assay.
(§2) It is necessary for this IV to have a method of comparison for the combination of experiments.
(§3) Human colorectal cancer HT-29 and prostate cancer PC-3 cell lines were obtained from the American Type Culture Collection (ATCC; Manassas, VA, USA) and maintained according to ATCC’s recommendations at 37 °C and 5% CO2 in appropriate medium supplemented with 10% foetal bovine serum, 100 U/mL penicillin G and 100 µg/mL streptomycin. Cells were maintained in the logarithmic growth phase at all times. The media were changed every 2 days and trypsinised with 0.25% trypsin–EDTA. A total of 100 µL of HT-29 cells (7500 cells/well) or PC-3 cells (5000 cells/well) were seeded in 96-well plates and allowed to adhere overnight before drug exposure. After 24 h, the cell culture media were replaced with 100 µL of drug-containing media. […]
(§4) The IV value was first determined for each drug alone in HT-29 and PC-3 cells. […] Both Drug A and Drug B concentrations were variable, and the combined effects of equipotent concentrations (fixed ratio) of the IV values for each drug were evaluated.
(§5) For the MTT protocol, after drug treatment, the cell medium was removed and 100 µL/well of MTT solution (0.5 mg/mL in PBS) was added. […] Absorbance was measured at 570 nm in an automated microplate reader (Tecan Infinite M200, Tecan Group Ltd., Männedorf, Switzerland). […]

The subject of experiment [2] is PC-3 cells. As to the kind of experiment: cells. The note with it: Homo sapiens, PC-3, 48 h, read-out: PC-3 IV (intermediate value). As to the method:
as §1, §2, §3, §4, §5

`O=c1[nH]cc(F)c(=O)[nH]1` [5-FU, 5-fluorouracil]: the IC50 in experiment [1] was 2580 nM.
With `CC(=O)O[C@H]1C(=O)[C@@]2(C)[C@H]([C@H](OC(=O)c3ccccc3)[C@]3(O)C[C@H](OC(=O)[C@H](O)[C@@H](NC(=O)c4ccccc4)c4ccccc4)C(C)=C1C3(C)C)[C@]1(OC(C)=O)CO[C@@H]1C[C@@H]2O` [PTX, paclitaxel], the IC50 in experiment [2] stood at 10 nM.

The values above are taken from paper PMC8584931 (International Journal of Molecular Sciences, 2021).
